The source of these data is patent US9012521B2, “Pyrroloquinoline quinone gel” (Mitsubishi Gas Chemical Company, Inc., priority 2010, dated 2015).

A short description of series [1]: Dissolution test in water, monitored by absorption at 450 nm. In kind it is physicochemical. The following applies: 1.3 mg PQQ powder in 2 mL water, room temperature; time to complete dissolution calculated from gradient of concentration change. How it is done:
In Examples and Comparative Examples, UV measurements were performed using a HITACHI U-2000 Spectrophotometer. […] To an acrylic cell for UV measurement, 1.3 mg of the PQQ powder was added, followed by the addition of 2 mL of water. […] The dissolution in water was monitored by absorption at 450 nm at room temperature. Absorbance measurement was performed for one hour, and the duration until the complete dissolution was calculated from the gradient of change in the concentration.

Series [2] is classed as physicochemical. From the text:
When mixing the salt of pyrroloquinoline quinone with the dispersion medium, the salt of pyrroloquinoline quinone may be added to the dispersion medium, the dispersion medium may be added to the salt of pyrroloquinoline quinone, or the salt of pyrroloquinoline quinone and the disperse medium may be added into separate vessels. Preferably, the salt of pyrroloquinoline quinone can be added to the dispersion medium. Preferably, the concentration of the salt of pyrroloquinoline quinone here is the same or higher than the solubility. The “solubility” as used herein refers to the extent to which a solute dissolves in a solvent, and can be expressed by the concentration of the solute in the saturated solution. The solubility of the salt of pyrroloquinoline quinone can be suitably determined by the temperature of the mixture.

A short description of series [3]: Specific surface area by the BET method with N2 adsorption. In kind it is physicochemical. The settings on record: pre-treatment drying at 150° C. for 20 hours. The procedure:
Using an Autosorb-6B manufactured by Quantachrome Instruments as the measurement apparatus, the specific surface area was determined by the BET method with N2 adsorption.

On to `O=C(O)c1cc(C(=O)O)c2c(n1)C(=O)C(=O)c1cc(C(=O)O)[nH]c1-2` [Comparative Example 1, Pyrroloquinoline quinone disodium], for which, in series [1], the Dissolution time is 10 min. Besides, in series [2], the solubility in water is 0.299 g per 100 g of water. The specific surface area in series [3] is listed as 2.9 m^2/g.
